Experimental findings from PubChem BioAssay (NCI) are described below.

Molecules are shown by their SMILES.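 Growth conditions: 96-well plates. Treatment: test compound, 48 hours, 5 concentrations. Analysis: linear interpolation between bracketing concentrations; unreached endpoints set to highest concentration. TGI is the concentration that stops growth completely.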

Among the test systems are ACHN renal; K-562 leukemia; KM12 colon; NCI-H23 lung; SK-MEL-5 melanoma; SNB-19 CNS; SNB-75 CNS; SW-620 colon; OVCAR-4 ovarian.
Experiment in all cases: NCI anticancer screen, dose series, 48 h

For `Cc1ccc(C=C(C(=O)O)C(=O)O)o1`, the TGI with ACHN renal, in the assay with K-562 leukemia, in the assay on KM12 colon, with NCI-H23 lung, with SK-MEL-5 melanoma and with SNB-19 CNS was more than 100 µM in each case. Moreover, the TGI in the assay with SNB-75 CNS and with SW-620 colon was more than 100 µM throughout.
Turning to `FC(F)(F)c1cnc(N/N=C(/c2ccccc2)c2ccccn2)c(Cl)c1`, the TGI was 13.2 µM in the assay on ACHN renal; more than 100 µM in the assay on K-562 leukemia; 26.3 µM in the assay on KM12 colon; 25.1 µM in the assay on NCI-H23 lung; 24.8 µM with OVCAR-4 ovarian; 21.2 µM with SK-MEL-5 melanoma. In addition, the TGI with SNB-19 CNS is 50.9 µM; in the assay on SNB-75 CNS it was 16 µM; in the assay on SW-620 colon it was more than 100 µM.
Consider `CC1CCN(c2cc(-c3cc4ccccc4o3)oc(=O)c2C#N)CC1`, for which the TGI in the assay with ACHN renal, in the assay on K-562 leukemia, in the assay on KM12 colon, in the assay on NCI-H23 lung, in the assay on OVCAR-4 ovarian and with SK-MEL-5 melanoma was more than 100 µM in each case. The TGI in the assay on SNB-19 CNS, with SNB-75 CNS and in the assay on SW-620 colon was more than 100 µM throughout.
Take `CC1(CCCCO)C=CC(S(=O)(=O)c2ccccc2)CC1` (centres undefined): the TGI in the assay with ACHN renal was 18.1 µM; in the assay with K-562 leukemia, 11.6 µM; with KM12 colon it was 8.45 µM; with NCI-H23 lung, 17.8 µM; in the assay with OVCAR-4 ovarian, 22.8 µM; in the assay on SK-MEL-5 melanoma, 15.4 µM. Besides, the figures for the TGI in the assay on SNB-19 CNS, in the assay on SNB-75 CNS and with SW-620 colon were 26.6 µM, 13.3 µM and 20.6 µM, respectively.
As to `COC(=O)c1cc2ccccc2c2nc3ccccc3c(Cl)c12`, the TGI in the assay with ACHN renal, in the assay on K-562 leukemia, in the assay with KM12 colon, in the assay on NCI-H23 lung, in the assay on OVCAR-4 ovarian and with SK-MEL-5 melanoma was more than 100 µM each time. Also, the TGI with SNB-19 CNS, in the assay on SNB-75 CNS and with SW-620 colon was more than 100 µM throughout.
Consider `Nc1c(C(=O)c2ccccc2)nnc2ccccc12`, for which the TGI in the assay on ACHN renal is 65.4 µM; in the assay with K-562 leukemia, more than 100 µM; in the assay with KM12 colon it was 67.7 µM; with NCI-H23 lung, more than 100 µM; in the assay with OVCAR-4 ovarian, more than 100 µM; in the assay on SK-MEL-5 melanoma it was 32.7 µM. The TGI with SNB-19 CNS and in the assay with SW-620 colon was more than 100 µM in each case.
Regarding `O=C1NC2=NN=C(c3ccc(Br)cc3)CN2NC12c1ccccc1-c1ccccc12`, the TGI in the assay on ACHN renal, in the assay on K-562 leukemia, with NCI-H23 lung, in the assay with OVCAR-4 ovarian, in the assay with SK-MEL-5 melanoma and in the assay with SNB-19 CNS was more than 100 µM throughout. Besides, the TGI in the assay with SNB-75 CNS and in the assay on SW-620 colon was more than 100 µM in each case.
On to `COc1ccc2nc(-c3ccc(O)cc3)ccc2c1`, for which the TGI in the assay with ACHN renal, in the assay on K-562 leukemia, with KM12 colon, in the assay on NCI-H23 lung, in the assay on OVCAR-4 ovarian and in the assay with SK-MEL-5 melanoma was more than 100 µM throughout. Moreover, the TGI in the assay with SNB-19 CNS, in the assay with SNB-75 CNS and with SW-620 colon was more than 100 µM in each case.
As for `CSc1nc(C)cc(=O)n1C1OC(COC(C)=O)C(OC(C)=O)C(OC(C)=O)C1OC(C)=O` (centres undefined), the TGI in the assay on ACHN renal, in the assay with K-562 leukemia, with KM12 colon, in the assay on NCI-H23 lung, in the assay on OVCAR-4 ovarian and with SK-MEL-5 melanoma was more than 100 µM in each case. Also, the TGI in the assay on SNB-19 CNS, in the assay on SNB-75 CNS and with SW-620 colon was more than 100 µM each time.
As for `O[C@]12c3ccccc3C1CCCCC2N1CCOCC1` (some centres undefined), the TGI with ACHN renal, in the assay on K-562 leukemia, in the assay with KM12 colon, with NCI-H23 lung, in the assay with OVCAR-4 ovarian and with SK-MEL-5 melanoma was more than 100 µM throughout. The TGI with SNB-19 CNS, in the assay on SNB-75 CNS and with SW-620 colon was more than 100 µM each time.
In the case of `N=C(N)c1ccc(N=Nc2c(O)ccc3cc(O)ccc23)cc1`, the TGI in the assay on ACHN renal, with K-562 leukemia, with KM12 colon, with OVCAR-4 ovarian, in the assay with SK-MEL-5 melanoma and in the assay on SNB-19 CNS was more than 100 µM throughout. Besides, the TGI with SW-620 colon is more than 100 µM.
With `Nc1ncnc2c1ncn2CCOC(c1ccccc1)P(=O)(O)O` (centres undefined), the TGI in the assay with ACHN renal, in the assay with KM12 colon, in the assay with NCI-H23 lung, in the assay with SK-MEL-5 melanoma, in the assay with SNB-19 CNS and with SNB-75 CNS was more than 100 µM throughout. The TGI in the assay on SW-620 colon was more than 100 µM.
In the case of `O=C(NN1C(=O)C(Cl)C1c1c(O)ccc2ccccc12)c1ccccc1O` (centres undefined), the TGI in the assay with ACHN renal, in the assay with K-562 leukemia, in the assay on KM12 colon, in the assay with NCI-H23 lung, with OVCAR-4 ovarian and in the assay on SK-MEL-5 melanoma was more than 100 µM each time. In addition, the TGI with SNB-19 CNS and in the assay with SNB-75 CNS was more than 100 µM throughout.
